Assay results as given in paper PMC4021529 (British Journal of Cancer, 2014).

Assay: Adverse events
Assay type: in vivo, human
[1] = schedule A, 100 mg (n=3), irrespective of relatedness
[2] = schedule A, 250 mg (n=6), irrespective of relatedness
[3] = schedule A, 300 mg (n=17), irrespective of relatedness
[4] = schedule A, 350 mg (n=3), irrespective of relatedness
[5] = schedule A, total (n=32), irrespective of relatedness
[6] = schedule B, 50 mg (n=4), irrespective of relatedness
[7] = schedule B, 100 mg (n=4), irrespective of relatedness
[8] = schedule B, 150 mg (n=16), irrespective of relatedness
[9] = schedule B, 200 mg (n=3), irrespective of relatedness

CC[C@@H]1C(=O)N(C)c2cnc(Nc3ccc(C(=O)N[C@H]4CC[C@H](N5CCN(CC6CC6)CC5)CC4)cc3OC)nc2N1C(C)C [volasertib]
40.6%: drug-related anaemia, incidence (schedule A, all doses)
62.5%: drug-related thrombocytopenia, incidence (schedule A, all doses)
9 (28.1) n (%): Leukopenia grade 3, number of patients [5]
3 n: Anaemia grade 3, number of patients [2] | Neutropenia grade 4, number of patients [4]
7 n: Leukopenia grade 3, number of patients [3] | Thrombocytopenia grade 3, number of patients [3]
10 (31.3) n (%): Neutropenia grade 4, number of patients [5] | Thrombocytopenia grade 3, number of patients [5]
2 n: Neutropenia grade 4, number of patients [2] | Abdominal pain grade 3, number of patients [3] | Anaemia grade 3, number of patients [3] | Anaemia grade 4, number of patients [3] | Thrombocytopenia grade 4, number of patients [3] | Anaemia grade 3, number of patients [4] | Leukopenia grade 3, number of patients [4] | Thrombocytopenia grade 4, number of patients [4] | Abdominal pain grade 3, number of patients [8] | Anaemia grade 4, number of patients [8] | Neutropenia grade 3, number of patients [8] | Pain grade 3, number of patients [8] | Anaemia grade 3, number of patients [9] | Ileus grade 3, number of patients [9]
1 n: Abdominal pain grade 3, number of patients [1] | Anaemia grade 3, number of patients [1] | Fatigue grade 3, number of patients [1] | Neutropenia grade 3, number of patients [1] | Thrombocytopenia grade 3, number of patients [1] | Upper GI haemorrhage grade 3, number of patients [1] | Anaemia grade 4, number of patients [2] | Hypokalaemia grade 3, number of patients [2] | Ileus grade 3, number of patients [2] | Leukopenia grade 4, number of patients [2] | Thrombocytopenia grade 3, number of patients [2] | Thrombocytopenia grade 4, number of patients [2] | Fatigue grade 3, number of patients [3] | Febrile neutropenia grade 3, number of patients [3] | Febrile neutropenia grade 4, number of patients [3] | Infection grade 3, number of patients [3] | Pain grade 3, number of patients [3] | Anaemia grade 4, number of patients [4] | Febrile neutropenia grade 3, number of patients [4] | Thrombocytopenia grade 3, number of patients [4] | Anaemia grade 3, number of patients [6] | Infection grade 3, number of patients [6] | Dyspnoea grade 3, number of patients [7] | Hypokalaemia grade 3, number of patients [7] | Anaemia grade 3, number of patients [8] | Dizziness grade 3, number of patients [8] | Fatigue grade 3, number of patients [8] | Leukopenia grade 3, number of patients [8] | Neutropenia grade 4, number of patients [8] | Rash grade 3, number of patients [8] | Upper GI haemorrhage grade 3, number of patients [8] | Vomiting grade 3, number of patients [8] | Abdominal distension grade 3, number of patients [9] | Decreased appetite grade 3, number of patients [9] | Fatigue grade 3, number of patients [9] | Febrile neutropenia grade 3, number of patients [9] | Hypokalaemia grade 3, number of patients [9]
2 (6.3) n (%): Fatigue grade 3, number of patients [5] | Febrile neutropenia grade 3, number of patients [5]
three deaths: deaths during the study (all due to underlying cancer, none considered related to volasertib)
8 (25.0) n (%): Anaemia grade 3, number of patients [5]
3 (9.4) n (%): Abdominal pain grade 3, number of patients [5]
6 (18.8) n (%): Neutropenia grade 3, number of patients [5]
4 (12.5) n (%): Anaemia grade 4, number of patients [5]
1 (3.1) n (%): Febrile neutropenia grade 4, number of patients [5] | Hypokalaemia grade 3, number of patients [5] | Ileus grade 3, number of patients [5] | Infection grade 3, number of patients [5] | Leukopenia grade 4, number of patients [5] | Pain grade 3, number of patients [5] | Upper GI haemorrhage grade 3, number of patients [5]
56.3%: drug-related leukopenia, incidence (schedule A, all doses) | drug-related neutropenia, incidence (schedule A, all doses)
5 (15.6) n (%): Thrombocytopenia grade 4, number of patients [5]
5 n: Neutropenia grade 3, number of patients [3] | Neutropenia grade 4, number of patients [3]
